Patent US10967078B2, “Radiolabelled mGluR2 PET ligands” (Janssen Pharmaceutica NV, priority 2014, dated 2021)

Key:
[1] = Biodistribution studies in normal female Wistar rats; assay type: in vivo, rat; details: for % ID blood / SUV blood / % ID bone / SUV bone / % ID carcass / % ID cerebellum / SUV cerebellum / SUV cerebrum + cerebellum / % ID cerebrum total / % ID cortex / SUV cortex / % ID heart / % ID hippocampus / SUV hippocampus / % ID intestines / % ID kidneys / % ID liver / % ID lungs / % ID muscle / SUV muscle / % ID rest of cerebrum / SUV rest of cerebrum / % ID spleen + pancreas / % ID stomach / % ID striatum / SUV striatum / % ID urine / SUV whole cerebrum: mean n=3; for SUV cerebrum + cerebellum / Total brain uptake: cerebrum + cerebellum; for Total brain uptake: n=3
Method: High-performance liquid chromatography (HPLC) analysis was performed on a LaChrom Elite® HPLC system (Hitachi, Armstadt, Germany) connected to a UV spectrometer. For the analysis of radiolabeled compounds, the HPLC eluate, after passage through the UV detector, was led over a shielded 3-inch NaI(Tl) scintillation detector connected to a single channel analyser (Gabi box, Raytest, Straubenhardt, Germany). The output signal was recorded and analysed using a GINA Star data acquisition system (Raytest, Straubenhardt, Germany). Radioactivity in samples of biodistribution studies was quantified using an automated gamma counter equipped with a 3-inch NaI(Tl) well crystal coupled to a multichannel analyser (Wallac 2480 Wizard, Wallac, Turku, Finland). Results were corrected for background radiation, physical decay and counter dead time. Animals were housed in individually ventilated cages in a thermoregulated (˜22° C.), humidity-controlled facility under a 12 h/12 h light/dark cycle with access to food and water ad libitum. All animal experiments were conducted according to the Belgian code of practice for the care and use of animals, after approval from the local University Ethics Committee for Animals.
Biodistribution studies of [^11C]-2 and [^11C]-1 were carried out in healthy female Wister rats (body weight 185-220 g) at 2 min, 30 min and 60 min post injection (p.i.) (n=3/time point). Rats were injected with about 18 MBq of the tracer via a tail vein under anesthesia (2.5% isoflurane in O2 at 1 L/min flow rate) and sacrificed by decapitation at the above specified time points. Blood and major organs were collected in tared tubes and weighed. The radioactivity in blood, organs and other body parts was measured using an automated gamma counter. For calculation of total blood radioactivity, blood mass was assumed to be 7% of the body mass. For calculation of total muscle and total bone radioactivity, muscle and bone mass were assumed to be 40% and 12% of the body mass, respectively.

mGluR2 [2] = molecular target: T1, mGluR2 (Mus musculus, UniProt Q14BI2); assay: In vitro autoradiography binding on mGluR2 KO and WT mouse brain sections; details: for Cortex WT (TB)/cortex WT (block Co. No. 1) / spec binding, cortex WT: WT mouse cortex; for Cortex WT (TB)/cortex WT (block Co. No. 1) / spec binding, cortex WT / Striatum WT (TB)/striatum WT (block Co. No. 1) / spec binding, striatum WT: block with 10 μM Co. No. 1; for Striatum WT (TB)/striatum WT (block Co. No. 1) / spec binding, striatum WT: WT mouse striatum; for difference in tracer binding to WT and mGluR2 KO mouse brain sections: in words; for Cortex WT (TB)/Cortex KO (TB) / Striatum WT (TB)/Striatum KO (TB): total binding ratio, WT versus mGluR2 KO mouse brain sections
T1 construct: horizontal sections of mGluR2 KO and WT mouse brain and of normal female Wistar rat brain; from tissue; host or cells: mouse brain sections (WT and mGluR2 KO), 20 µm
Method: (§1) In vitro autoradiography studies were performed on horizontal sections of mGluR2 KO and WT mouse brain and of normal female Wistar rat brain (20 μm). The sections were preincubated in 50 mM Tris-HCl (MgCl2 2 mM, CaCl2 2 mM; pH 7.0) for 10 min (two times) at room temperature and dried. Next, the brain sections were incubated with tracer [^11C]-2, [^11C]-5, [^11C]-4, [^11C]-1 or [^18F]-3 diluted in the same Tris-HCl buffer as used for the preincubation additionally containing 0.1% BSA or with this tracer solution in the presence of 10 μM Co. No. 2 or Co. No. 1. The mouse brain sections were incubated with 17 kBq of carbon-11 labeled tracer and 1.7 kBq of fluorine-18 labeled tracer. For the rat brain sections this was 44 kBq of carbon-11 labeled tracer and 0.44 kBq of fluorine-18 labeled tracer. After 30 min of incubation, the brain sections were washed three times for 5 min in ice-cold Tris-HCl 50 mM ((MgCl2 2 mM, CaCl2 2 mM; pH 7.0+0.1% BSA buffer). After a quick dip in purified ice-cold water, the slides were dried. Autoradiograms were obtained by exposing the slides overnight to a high-performance phosphor storage screen (super-resolution screen; Perkin Elmer, Waltham, USA). The screens were read using a Cyclone Plus system (Perkin Elmer) and analysed using Optiquant software (Perkin Elmer). The radioactivity concentration in the autoradiograms was expressed in digital light units (DLU)/mm^2.
(§2) To obtain additional information on the specificity of the tracer binding to mGluR2, in vitro autoradiography binding studies were performed on mGluR2 KO and WT mouse brain sections and on normal rat brain sections in presence or absence of a high concentration of mGluR2 NAM compounds (Co. No. 1 or Co. No. 2).

mGluR2 [3] = molecular target: T2, mGluR2 (Rattus norvegicus, UniProt P31421); assay: In vitro autoradiography binding on normal female Wistar rat brain sections; details: in words
T2 construct: horizontal sections of mGluR2 KO and WT mouse brain and of normal female Wistar rat brain; from tissue; host or cells: normal female Wistar rat brain sections, 20 µm
Method: as §1, §2

mGlu3 = mGlu3 (Homo sapiens, UniProt Q14832); assay: Selectivity for mGluR2 versus mGluR3; assay type: biochemical
mGlu4 = mGlu4 (Homo sapiens, UniProt Q14833); assay: Selectivity for mGluR2 versus mGluR4; assay type: biochemical
mGlu8 = mGlu8 (Homo sapiens, UniProt O00222); assay: Selectivity for mGluR2 versus mGluR8; assay type: biochemical
mGlu8, sequence (O00222 34-908): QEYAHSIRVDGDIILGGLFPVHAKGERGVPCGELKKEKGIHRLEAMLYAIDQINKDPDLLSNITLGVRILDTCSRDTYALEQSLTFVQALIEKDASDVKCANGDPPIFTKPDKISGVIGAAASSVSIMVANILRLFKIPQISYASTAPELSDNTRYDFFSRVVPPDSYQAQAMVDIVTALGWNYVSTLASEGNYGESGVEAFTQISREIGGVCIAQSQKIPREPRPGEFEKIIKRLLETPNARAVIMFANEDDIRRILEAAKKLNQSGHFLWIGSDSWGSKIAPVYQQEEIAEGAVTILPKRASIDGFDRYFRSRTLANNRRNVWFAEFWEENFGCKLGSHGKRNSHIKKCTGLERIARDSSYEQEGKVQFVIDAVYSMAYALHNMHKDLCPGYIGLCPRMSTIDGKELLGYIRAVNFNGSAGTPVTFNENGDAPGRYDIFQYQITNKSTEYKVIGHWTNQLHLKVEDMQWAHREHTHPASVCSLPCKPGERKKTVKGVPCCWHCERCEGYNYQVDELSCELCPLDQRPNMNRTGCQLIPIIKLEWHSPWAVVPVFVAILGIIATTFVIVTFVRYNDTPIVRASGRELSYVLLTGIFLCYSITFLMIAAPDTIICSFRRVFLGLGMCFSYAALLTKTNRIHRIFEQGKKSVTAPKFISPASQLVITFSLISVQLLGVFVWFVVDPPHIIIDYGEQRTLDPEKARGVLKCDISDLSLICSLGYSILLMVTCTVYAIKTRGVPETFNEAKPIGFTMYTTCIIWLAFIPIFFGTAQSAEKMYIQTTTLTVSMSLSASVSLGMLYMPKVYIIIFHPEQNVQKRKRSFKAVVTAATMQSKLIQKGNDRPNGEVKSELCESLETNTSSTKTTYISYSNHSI

T1 sequence (Q14BI2 19-872): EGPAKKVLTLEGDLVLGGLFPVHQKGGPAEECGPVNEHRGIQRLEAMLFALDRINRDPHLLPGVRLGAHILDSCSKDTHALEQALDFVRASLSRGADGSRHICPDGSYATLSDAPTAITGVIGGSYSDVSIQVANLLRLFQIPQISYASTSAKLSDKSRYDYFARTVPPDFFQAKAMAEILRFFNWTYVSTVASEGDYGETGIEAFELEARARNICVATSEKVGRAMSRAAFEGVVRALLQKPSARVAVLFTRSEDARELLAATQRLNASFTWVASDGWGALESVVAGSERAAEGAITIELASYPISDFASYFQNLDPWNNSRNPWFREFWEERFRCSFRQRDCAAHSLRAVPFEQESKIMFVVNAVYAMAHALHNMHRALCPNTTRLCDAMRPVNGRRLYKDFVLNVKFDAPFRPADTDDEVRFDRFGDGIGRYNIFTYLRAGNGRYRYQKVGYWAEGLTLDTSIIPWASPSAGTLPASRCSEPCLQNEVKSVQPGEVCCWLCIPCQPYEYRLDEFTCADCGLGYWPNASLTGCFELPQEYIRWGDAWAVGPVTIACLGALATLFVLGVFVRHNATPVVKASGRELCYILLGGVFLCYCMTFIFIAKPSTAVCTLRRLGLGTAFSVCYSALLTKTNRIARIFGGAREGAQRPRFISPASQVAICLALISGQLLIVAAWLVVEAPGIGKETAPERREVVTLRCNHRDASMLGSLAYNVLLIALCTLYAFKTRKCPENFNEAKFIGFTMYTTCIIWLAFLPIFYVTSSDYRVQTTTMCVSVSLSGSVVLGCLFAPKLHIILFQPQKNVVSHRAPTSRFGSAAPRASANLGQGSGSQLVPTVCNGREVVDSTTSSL
mGlu3, sequence (Q14832 23-879): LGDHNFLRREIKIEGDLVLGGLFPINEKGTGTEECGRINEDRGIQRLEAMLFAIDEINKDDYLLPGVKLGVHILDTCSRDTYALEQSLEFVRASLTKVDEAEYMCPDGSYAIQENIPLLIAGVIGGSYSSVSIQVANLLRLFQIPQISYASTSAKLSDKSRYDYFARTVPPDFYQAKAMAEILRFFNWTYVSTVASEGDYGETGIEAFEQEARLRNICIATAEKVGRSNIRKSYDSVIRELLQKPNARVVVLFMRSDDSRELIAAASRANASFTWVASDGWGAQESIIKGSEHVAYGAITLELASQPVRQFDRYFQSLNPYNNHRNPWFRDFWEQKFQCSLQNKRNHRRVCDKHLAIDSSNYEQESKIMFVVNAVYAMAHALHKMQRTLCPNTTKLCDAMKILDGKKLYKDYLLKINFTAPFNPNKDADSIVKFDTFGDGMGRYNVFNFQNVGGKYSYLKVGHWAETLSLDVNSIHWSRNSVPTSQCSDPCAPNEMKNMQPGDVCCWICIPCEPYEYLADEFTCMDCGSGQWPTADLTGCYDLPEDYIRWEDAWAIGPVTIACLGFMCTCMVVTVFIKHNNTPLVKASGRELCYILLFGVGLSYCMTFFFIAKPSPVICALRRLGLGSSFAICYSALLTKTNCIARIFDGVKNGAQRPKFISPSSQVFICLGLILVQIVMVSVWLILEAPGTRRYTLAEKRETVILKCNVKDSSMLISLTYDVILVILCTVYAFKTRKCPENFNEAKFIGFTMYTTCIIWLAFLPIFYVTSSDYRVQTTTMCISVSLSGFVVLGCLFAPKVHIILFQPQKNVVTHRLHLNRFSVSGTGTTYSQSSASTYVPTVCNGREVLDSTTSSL
mGlu4, sequence (Q14833 33-912): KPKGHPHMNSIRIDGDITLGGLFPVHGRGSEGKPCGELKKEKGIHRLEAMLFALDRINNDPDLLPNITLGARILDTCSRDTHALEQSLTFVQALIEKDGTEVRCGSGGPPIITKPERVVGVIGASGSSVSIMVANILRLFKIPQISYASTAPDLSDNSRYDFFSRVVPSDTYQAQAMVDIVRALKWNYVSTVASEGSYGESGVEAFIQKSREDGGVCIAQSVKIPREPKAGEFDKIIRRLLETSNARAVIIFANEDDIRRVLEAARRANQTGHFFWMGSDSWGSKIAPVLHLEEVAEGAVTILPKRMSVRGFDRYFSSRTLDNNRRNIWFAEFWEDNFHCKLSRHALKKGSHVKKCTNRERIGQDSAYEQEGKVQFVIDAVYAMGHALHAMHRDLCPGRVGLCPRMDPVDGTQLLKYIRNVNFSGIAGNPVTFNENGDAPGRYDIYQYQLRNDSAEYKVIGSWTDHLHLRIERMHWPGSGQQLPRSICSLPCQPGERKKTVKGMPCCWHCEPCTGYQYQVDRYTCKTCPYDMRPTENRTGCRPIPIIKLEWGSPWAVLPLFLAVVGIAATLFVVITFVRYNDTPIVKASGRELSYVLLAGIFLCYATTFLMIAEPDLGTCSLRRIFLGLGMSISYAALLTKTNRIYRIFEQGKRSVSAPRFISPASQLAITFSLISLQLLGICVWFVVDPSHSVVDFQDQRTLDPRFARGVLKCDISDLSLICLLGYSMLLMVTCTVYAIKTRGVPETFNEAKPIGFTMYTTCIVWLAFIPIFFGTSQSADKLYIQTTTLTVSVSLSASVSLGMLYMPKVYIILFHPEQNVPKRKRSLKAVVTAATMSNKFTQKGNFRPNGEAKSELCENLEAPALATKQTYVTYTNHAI
T2 sequence (P31421 19-872): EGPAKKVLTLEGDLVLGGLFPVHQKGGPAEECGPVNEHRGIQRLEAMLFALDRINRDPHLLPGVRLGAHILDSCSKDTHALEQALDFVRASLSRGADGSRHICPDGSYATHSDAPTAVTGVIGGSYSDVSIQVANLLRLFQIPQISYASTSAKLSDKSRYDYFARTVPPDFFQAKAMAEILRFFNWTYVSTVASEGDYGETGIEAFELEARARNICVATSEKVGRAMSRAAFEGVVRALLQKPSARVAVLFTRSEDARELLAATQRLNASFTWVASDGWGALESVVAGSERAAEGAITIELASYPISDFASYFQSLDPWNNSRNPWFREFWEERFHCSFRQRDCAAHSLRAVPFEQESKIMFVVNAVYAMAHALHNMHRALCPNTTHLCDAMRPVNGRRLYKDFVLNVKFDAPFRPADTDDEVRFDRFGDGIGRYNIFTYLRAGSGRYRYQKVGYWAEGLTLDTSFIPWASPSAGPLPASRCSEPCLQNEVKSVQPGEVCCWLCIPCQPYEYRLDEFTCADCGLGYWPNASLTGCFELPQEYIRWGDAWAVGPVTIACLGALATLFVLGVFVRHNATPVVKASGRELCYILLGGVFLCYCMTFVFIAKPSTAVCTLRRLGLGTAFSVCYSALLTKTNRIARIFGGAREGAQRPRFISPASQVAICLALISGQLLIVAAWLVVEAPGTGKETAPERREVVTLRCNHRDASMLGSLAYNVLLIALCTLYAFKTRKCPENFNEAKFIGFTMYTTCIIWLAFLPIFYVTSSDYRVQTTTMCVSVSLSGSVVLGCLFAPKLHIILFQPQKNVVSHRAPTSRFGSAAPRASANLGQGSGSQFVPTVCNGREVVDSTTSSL

## C[C@H]1CN(c2ccc(C(F)(F)F)cc2)C(=O)c2c(-c3ccnc([11CH3])c3)cnn21 [[^11C]-1]
[1]; blood
  2 min - to- 30 min wash-out ratio: 1.86
[1]; blood, 2 min p.i.
  % ID blood: 6.3 % ID
  SUV blood: 0.90 SUV
[1]; blood, 30 min p.i.
  % ID blood: 3.4 % ID
  SUV blood: 0.49 SUV
[1]; bone
  2 min - to- 30 min wash-out ratio: 2.11
[1]; bone, 2 min p.i.
  % ID bone: 5.7 % ID
  SUV bone: 0.48 SUV
[1]; bone, 30 min p.i.
  % ID bone: 2.7 % ID
  SUV bone: 0.23 SUV
[1]; 2 min p.i.
  % ID carcass: 43.4 % ID
  SUV cerebrum + cerebellum: 2.82 SUV
  Total brain uptake: 2.0 % ID
  % ID cerebrum total: 1.643 % ID
  % ID heart: 0.6 % ID
  % ID intestines: 10.1 % ID
  % ID kidneys: 2.9 % ID
  % ID liver: 31.2 % ID
  % ID lungs: 2.1 % ID
  % ID spleen + pancreas: 1.9 % ID
  % ID stomach: 2.8 % ID
  % ID urine: 0.1 % ID
[1]; 30 min p.i.
  % ID carcass: 61.5 % ID
  SUV cerebrum + cerebellum: 0.95 SUV
  Total brain uptake: 0.69 ± 0.05 % ID
  % ID cerebrum total: 0.567 % ID
  % ID heart: 0.5 % ID
  % ID intestines: 11.1 % ID
  % ID kidneys: 1.6 % ID
  % ID liver: 14.2 % ID
  % ID lungs: 0.9 % ID
  % ID spleen + pancreas: 1.2 % ID
  % ID stomach: 6.4 % ID
  % ID urine: 0.1 % ID
[1]; cerebellum
  2 min - to- 30 min wash-out ratio: 2.90
[1]; cerebellum, 2 min p.i.
  % ID cerebellum: 0.340 % ID
  SUV cerebellum: 2.60 SUV
[1]; cerebellum, 30 min p.i.
  % ID cerebellum: 0.120 % ID
  SUV cerebellum: 0.90 SUV
[1]; 2 min p.i., listed as [^11C-1]
  Total brain uptake: 2.01 ± 0.24 % ID
[1]; cortex
  2 min - to- 30 min wash-out ratio: 3.22
[1]; cortex, 2 min p.i.
  % ID cortex: 0.131 % ID
  SUV cortex: 3.51 SUV
[1]; cortex, 30 min p.i.
  % ID cortex: 0.039 % ID
  SUV cortex: 1.09 SUV
[1]; hippocampus
  2 min - to- 30 min wash-out ratio: 2.76
[1]; hippocampus, 2 min p.i.
  % ID hippocampus: 0.083 % ID
  SUV hippocampus: 2.41 SUV
[1]; hippocampus, 30 min p.i.
  % ID hippocampus: 0.031 % ID
  SUV hippocampus: 0.87 SUV
[1]; muscle
  2 min - to- 30 min wash-out ratio: 0.61
[1]; muscle, 2 min p.i.
  % ID muscle: 15.1 % ID
  SUV muscle: 0.38 SUV
[1]; muscle, 30 min p.i.
  % ID muscle: 24.9 % ID
  SUV muscle: 0.62 SUV
[1]; rest of cerebrum
  2 min - to- 30 min wash-out ratio: 3.00
[1]; rest of cerebrum, 2 min p.i.
  % ID rest of cerebrum: 1.286 % ID
  SUV rest of cerebrum: 2.83 SUV
[1]; rest of cerebrum, 30 min p.i.
  % ID rest of cerebrum: 0.445 % ID
  SUV rest of cerebrum: 0.94 SUV
[1]; striatum
  2 min - to- 30 min wash-out ratio: 2.68
[1]; striatum, 2 min p.i.
  % ID striatum: 0.143 % ID
  SUV striatum: 2.58 SUV
[1]; striatum, 30 min p.i.
  % ID striatum: 0.052 % ID
  SUV striatum: 0.97 SUV
[1]; whole cerebrum
  2 min - to- 30 min wash-out ratio: 2.98
[1]; whole cerebrum, 2 min p.i.
  SUV whole cerebrum: 2.83 SUV
[1]; whole cerebrum, 30 min p.i.
  SUV whole cerebrum: 0.95 SUV
mGluR2 [2]
  Cortex WT (TB)/cortex WT (block Co. No. 1): ~21.5
  spec binding, cortex WT: (~95% spec
  Striatum WT (TB)/striatum WT (block Co. No. 1): ~11.8
  spec binding, striatum WT: (~92% specific
  difference in tracer binding to WT and mGluR2 KO mouse brain sections: significant difference
  Cortex WT (TB)/Cortex KO (TB): ~7.1
  Striatum WT (TB)/Striatum KO (TB): ~3.8
mGluR2 [3]
  total binding to normal rat brain sections: less pronounced

## C[C@H]1CN(c2ccc(S(F)(F)(F)(F)F)cc2)C(=O)c2c(-c3ccnc(N[11CH3])c3)cnn21 [[^11C]-4]
mGluR2 [2]
  Cortex WT (TB)/cortex WT (block Co. No. 1): ~3.8
  spec binding, cortex WT: (~74% spec
  Striatum WT (TB)/striatum WT (block Co. No. 1): ~2.6
  spec binding, striatum WT: (~62% spec
  difference in tracer binding to WT and mGluR2 KO mouse brain sections: less pronounced
  Cortex WT (TB)/Cortex KO (TB): ~2.6
  Striatum WT (TB)/Striatum KO (TB): ~2.2

## CNc1cc(-c2cnn3c2C(=O)N(c2ccc(C(F)(F)F)c(OC)n2)C[C@@H]3C)ccn1 [Co. No. 5, (7S)-5-[6-Methoxy-5-(trifluoromethyl)-2-pyridyl]-7-methyl-3-[2-(methylamino)-4-pyridyl]-6,7-dihydropyrazolo[1,5-a]pyrazin-4-one]
mGlu3
  Selectivity over mGlu3: 234.4
other
  melting point: 125.82 °C

## COc1nc(N2C[C@H](C)n3ncc(-c4ccnc(N[11CH3])c4)c3C2=O)ccc1C(F)(F)F [[^11C]-5]
mGluR2 [2]
  Cortex WT (TB)/cortex WT (block Co. No. 1): ~2.4
  spec binding, cortex WT: (~58% spec
  Striatum WT (TB)/striatum WT (block Co. No. 1): ~1.9
  spec binding, striatum WT: (~47% spec
  difference in tracer binding to WT and mGluR2 KO mouse brain sections: less pronounced
  Cortex WT (TB)/Cortex KO (TB): ~2.6
  Striatum WT (TB)/Striatum KO (TB): ~1.9

## CNc1cc(-c2cnn3c2C(=O)N(c2ccc(C(F)(F)F)cc2)C[C@@H]3C)ccn1 [Co. No. 2, (7S)-7-Methyl-3-[2-(methylamino)-4-pyridyl]-5-[4-(trifluoromethyl)phenyl]-6,7-dihydropyrazolo[1,5-a]pyrazin-4-one]
mGlu3
  Selectivity over mGlu3: 44.7
mGlu4
  Selectivity over mGlu4: 8709.6
mGlu8
  Selectivity over mGlu8: 1737.8
